Patent US20250206722A1, “SMALL MOLECULE INHIBITORS OF TEA DOMAIN FAMILY MEMBERS” (The Scripps Research Institute, priority 2022, published 2025)

How the values were obtained:
[1] = tested on: transcriptional activity of TEADs; test: TEAD reporter assay (MCF7 TEAD-LUC reporter cells); format: cell-based; settings: Homo sapiens, 24 hours, BrightGlo luminescence
Protocol: MCF7 TEAD-LUC reporter cells were obtained from BPS Bioscience, Inc. and cultured in DMEM medium (Corning, 10-013-CV) supplemented with 10% fetal bovine serum (Gibco, 10438-026), 1% penicillin-streptomycin (Gibco, 15070063), 1% non-essential amino acids (Gibco, 15070063), and 10 μg/mL insulin (Sigma, 10516). Cells were trypsinized, resuspended in growth medium, and diluted to a concentrated of 100,000 cells/mL. 5,000 cells, 50 μL of cell suspension, per well were then plated in a white 384-well plate (Corning) and incubated at 37° C., 5% CO2. After 24 hours incubation, 100 nL of test compounds in DMSO, 20-point 1:2 dilution starting from 20 μM (final concentration) in triplicate, were transferred to each well using an Agilent Bravo instrument outfitted with a pintool head. Cells were incubated at 37° C., 5% CO2 for 24 hours followed by the addition of 30 μL of BrightGlo (Promega; diluted 1:3 in water) to each well and luminescence values recorded using an EnVision plate reader.
The in vitro assay results of the compounds in the present invention were included in Table 1. The compounds described herein, inhibited the transcriptional activity of TEADs, as assessed by decreased luminance from a TEAD reporter cell line (MCF7 TEAD-LUC) in response to compound treatment.

NCI-H226 cells = test: NCI-H226 proliferation assay (in house); format: cell-based; settings: Homo sapiens, 120 h, 5 days, Cell TiterGlo, 20-point 1:2 dilution from 20 μM
Protocol: NCI-H226 Proliferation Assay
NCI-H226 cells were obtained from American Type Culture Collection (ATCC, CRL-5826) and cultured in RPMI 1640 with L-glutamine (Corning, 10-040-CV) supplemented with 10% fetal bovine serum (Gibco, 10438-026) and 1% penicillin-streptomycin (Gibco, 15070063). Cells were trypsinized, resuspended in growth medium, and diluted to a concentrated of 10,000 cells/mL. 500 cells, 50 μL of cell suspension, per well were then plated in a white 384-well plate (Corning) and incubated at 37° C., 5% CO2. After 24 hours incubation, 100 nL of test compounds in DMSO, 20-point 1:2 dilution starting from 20 μM (final concentration) in triplicate, were transferred to each well using an Agilent Bravo instrument outfitted with a pintool head. Cells were incubated at 37° C., 5% CO2 for 5 days followed by the addition of 30 μL of Cell TiterGlo (Promega; diluted 1:6 in water) to each well and luminescence values recorded using an EnVision plate reader. […]

Row | IC50 [1] | IC50 (NCI-H226 cells) | SMILES
1 | 23.5 nM | 0.158 µM | C=C(F)C(=O)N1CC=C(c2cccnc2Nc2ccc(C(F)(F)F)nc2)CC1 [Example 146, 2-fluoro-1-(2-((6-(trifluoromethyl)pyridin-3-yl)amino)-3′,6′-dihydro-[3,4′-bipyridin]-1′(2′H)-yl)prop-2-en-1-one]
2 | 66 nM | 0.341 µM | C=C(F)C(=O)N1CC=C(c2cccnc2Nc2ccc(OC(F)(F)F)nc2)CC1 [Example 148, 2-fluoro-1-(2-((6-(trifluoromethoxy)pyridin-3-yl)amino)-3′,6′-dihydro-[3,4′-bipyridin]-1′(2′H)-yl)prop-2-en-1-one]
3 | 2.3 nM | 7.28 µM | C=CC(=O)N1CCN(c2ncccc2C(O)c2ccc(C(F)(F)F)nc2)CC1 (stereo not shown) [Example 142, 1-(4-(3-(hydroxy(6-(trifluoromethyl)pyridin-3-yl)methyl)pyridin-2-yl)piperazin-1-yl)prop-2-en-1-one]
4 | 1.1 nM | 1.33 µM | C=C(F)C(=O)N1CC=C(c2cnc(C)nc2Oc2ccc(C(F)(F)F)nc2)CC1 [Example 130, 2-fluoro-1-(4-(2-methyl-4-((6-(trifluoromethyl)pyridin-3-yl)oxy)pyrimidin-5-yl)-3,6-dihydropyridin-1(2H)-yl)prop-2-en-1-one]
5 | 0.9 nM | 0.012 µM | C=CC(=O)N1CCN(c2nccnc2Cc2ccc(C(F)(F)F)cc2)CC1 [Example 98, 1-(4-(3-(4-(trifluoromethyl)benzyl)pyrazin-2-yl)piperazin-1-yl)prop-2-en-1-one]
6 | 4.4 nM | 0.072 µM | C=C(F)C(=O)N1CCN(c2nc(C)c(C)nc2Nc2ccc(C(F)(F)F)nc2)CC1 [Example 114, 1-(4-(5,6-dimethyl-3-((6-(trifluoromethyl)pyridin-3-yl)amino)pyrazin-2-yl)piperazin-1-yl)-2-fluoroprop-2-en-1-one]
7 | 9 nM | 0.192 µM | C=CC(=O)N1CCN(c2nccnc2Nc2ccc(C(F)(F)F)nc2)C[C@H]1C [Example 54, (R)-1-(2-methyl-4-(3-((6-(trifluoromethyl)pyridin-3-yl)amino)pyrazin-2-yl)piperazin-1-yl)prop-2-en-1-one]
8 | 2.3 nM | 0.013 µM | C=C(CF)C(=O)N1CCN(c2nccnc2Nc2ccc(C(F)(F)F)cc2)CC1 [Example 188, 2-(fluoromethyl)-1-(4-(3-((4-(trifluoromethyl)phenyl)amino)pyrazin-2-yl)piperazin-1-yl)prop-2-en-1-one]
9 | 11 nM | 0.708 µM | C=C(F)C(=O)N1CCN(c2nccnc2NC2C3CC2C3C(F)(F)F)CC1 (stereo not shown) [Example 68, 2-fluoro-1-(4-(3-((4-(trifluoromethyl)bicyclo[1.1.1]pentan-2-yl)amino)pyrazin-2-yl)piperazin-1-yl)prop-2-en-1-one]
10 | > 20000 nM | 3.3 µM | C=CC(=O)N1CCN(c2nccnc2Nc2ccc(C(F)(F)F)cc2)C[C@@H]1CCO [Example 17, (S)-1-(2-(2-hydroxyethyl)-4-(3-((4-(trifluoromethyl)phenyl)amino)pyrazin-2-yl)piperazin-1-yl)prop-2-en-1-one]
11 | 410 nM | 1.67 µM | C=C(F)C(=O)N1CCN(c2ncccc2Nc2ccc(C(F)(F)F)nc2)CC1 [Example 135, 2-fluoro-1-(4-(3-((6-(trifluoromethyl)pyridin-3-yl)amino)pyridin-2-yl)piperazin-1-yl)prop-2-en-1-one]
12 | 134 nM | 0.701 µM | C=CC(=O)N1CCN(c2nccnc2Nc2ccc(C(F)(F)F)cc2)C[C@@H]1C(N)=O [Example 18, (R)-1-acryloyl-4-(3-((4-(trifluoromethyl)phenyl)amino)pyrazin-2-yl)piperazine-2-carboxamide]
13 | > 20000 nM | > 20 µM | CN(C#N)C(=O)N1CCN(c2nccnc2Nc2ccc(C(F)(F)F)cc2)CC1 [Example 185, N-cyano-N-methyl-4-(3-((4-(trifluoromethyl)phenyl)amino)pyrazin-2-yl)piperazine-1-carboxamide]
14 | 39 nM | 1.6 µM | C=CC(=O)N1CCN(c2nccnc2C(=O)NC2CCCC2)CC1 [Example 102, 3-(4-acryloylpiperazin-1-yl)-N-cyclopentylpyrazine-2-carboxamide]
15 | 598 nM | 2.25 µM | C=CC(=O)N1CCC(c2cnc(C)nc2Oc2ccc(C(F)(F)F)nc2)CC1 [Example 131, 1-(4-(2-methyl-4-((6-(trifluoromethyl)pyridin-3-yl)oxy)pyrimidin-5-yl)piperidin-1-yl)prop-2-en-1-one]
16 | 188 nM | 1.05 µM | C=CC(=O)N1CCC(c2cccnc2Nc2ccc(OC(F)(F)F)nc2)CC1 [Example 151, 1-(4-(2-((6-(trifluoromethoxy)pyridin-3-yl)amino)pyridin-3-yl)piperidin-1-yl)prop-2-en-1-one]
17 | > 20000 nM | > 20 µM | C=C(CO)C(=O)N1CCN(c2nccnc2Nc2ccc(C(F)(F)F)cc2)CC1 [Example 186, 2-(hydroxymethyl)-1-(4-(3-((4-(trifluoromethyl)phenyl)amino)pyrazin-2-yl)piperazin-1-yl)prop-2-en-1-one]
18 | 4430 nM | 39.5 µM | C=C(F)C(=O)N1CCC(c2cccnc2Nc2ccc(C(F)(F)F)nc2)CC1 [Example 150, 2-fluoro-1-(4-(2-((6-(trifluoromethyl)pyridin-3-yl)amino)pyridin-3-yl)piperidin-1-yl)prop-2-en-1-one]
19 | 1680 nM | 3.12 µM | C=C(F)C(=O)N1CC(Nc2nccnc2Nc2ccc(OC(F)(F)F)nc2)C1 [Example 64, 2-fluoro-1-(3-((3-((6-(trifluoromethoxy)pyridin-3-yl)amino)pyrazin-2-yl)amino)azetidin-1-yl)prop-2-en-1-one]
20 | 142 nM | 2.08 µM | C=CC(=O)N1CCN(c2nccnc2C(=O)NC2CCC2)CC1 [Example 99, 3-(4-acryloylpiperazin-1-yl)-N-cyclobutylpyrazine-2-carboxamide]
21 | 3 nM | 0.028 µM | C=CC(=O)N1CCN(c2nccnc2Oc2ccc(OC)cc2)CC1 [Example 70, 1-(4-(3-(4-methoxyphenoxy)pyrazin-2-yl)piperazin-1-yl)prop-2-en-1-one]
22 | 1.4 nM | 0.0173 µM | C=CC(=O)N1CC=C(c2nccnc2Oc2ccc(C(F)(F)F)nc2)CC1 [Example 84, 1-(4-(3-((6-(trifluoromethyl)pyridin-3-yl)oxy)pyrazin-2-yl)-3,6-dihydropyridin-1(2H)-yl)prop-2-en-1-one]
23 | 31000 nM | 3.01 µM | C=C(CN1CC(c2nccnc2Oc2ccc(C(F)(F)F)nc2)C1)C(=O)O [Example 86, 2-((3-(3-((6-(trifluoromethyl)pyridin-3-yl)oxy)pyrazin-2-yl)azetidin-1-yl)methyl)acrylic acid]
24 | 8.6 nM | 11.1 µM | C=CC(=O)N1CCN(c2ncccc2C(=O)c2ccc(C(F)(F)F)cn2)CC1 [Example 140, 1-(4-(3-(5-(trifluoromethyl)picolinoyl)pyridin-2-yl)piperazin-1-yl)prop-2-en-1-one]
25 | 33.9 nM | 0.422 µM | N#C/C=C/C(=O)N1CCN(c2nccnc2Nc2ccc(C(F)(F)F)nc2)CC1 [Example 183, (E)-4-oxo-4-(4-(3-((6-(trifluoromethyl)pyridin-3-yl)amino)pyrazin-2-yl)piperazin-1-yl)but-2-enenitrile]
26 | 2.7 nM | 0.884 µM | C/C=C/C(=O)N1CCN(c2nccnc2Nc2ccc(C(F)(F)F)nc2)CC1 [Example 178, (E)-1-(4-(3-((6-(trifluoromethyl)pyridin-3-yl)amino)pyrazin-2-yl)piperazin-1-yl)but-2-en-1-one]
27 | 1.8 nM | 0.008 µM | C=CC(=O)N1CCN(c2nccnc2Oc2ccc(C(F)(F)F)nc2)CC1 [Example 77, 1-(4-(3-((6-(trifluoromethyl)pyridin-3-yl)oxy)pyrazin-2-yl)piperazin-1-yl)prop-2-en-1-one]
28 | 8.1 nM | 0.031 µM | C=C(F)C(=O)N1CCN(c2cccnc2Nc2ccc(C(F)(F)F)nc2)CC1 [Example 144, 2-fluoro-1-(4-(2-((6-(trifluoromethyl)pyridin-3-yl)amino)pyridin-3-yl)piperazin-1-yl)prop-2-en-1-one]
29 | 2.7 nM | 0.112 µM | C=CC(=O)N1CCC(c2nccnc2Oc2ccc(C(F)(F)F)cn2)CC1 [Example 75, 1-(4-(3-((5-(trifluoromethyl)pyridin-2-yl)oxy)pyrazin-2-yl)piperidin-1-yl)prop-2-en-1-one]
